The results in this text go back to ChEMBL document CHEMBL1201862, “PubChem BioAssay data set” (2004).

The target of assay [1] is T1, Heat shock factor protein 1 (Mus musculus, UniProt P38532).
T1 sequence (P38532 whole entry): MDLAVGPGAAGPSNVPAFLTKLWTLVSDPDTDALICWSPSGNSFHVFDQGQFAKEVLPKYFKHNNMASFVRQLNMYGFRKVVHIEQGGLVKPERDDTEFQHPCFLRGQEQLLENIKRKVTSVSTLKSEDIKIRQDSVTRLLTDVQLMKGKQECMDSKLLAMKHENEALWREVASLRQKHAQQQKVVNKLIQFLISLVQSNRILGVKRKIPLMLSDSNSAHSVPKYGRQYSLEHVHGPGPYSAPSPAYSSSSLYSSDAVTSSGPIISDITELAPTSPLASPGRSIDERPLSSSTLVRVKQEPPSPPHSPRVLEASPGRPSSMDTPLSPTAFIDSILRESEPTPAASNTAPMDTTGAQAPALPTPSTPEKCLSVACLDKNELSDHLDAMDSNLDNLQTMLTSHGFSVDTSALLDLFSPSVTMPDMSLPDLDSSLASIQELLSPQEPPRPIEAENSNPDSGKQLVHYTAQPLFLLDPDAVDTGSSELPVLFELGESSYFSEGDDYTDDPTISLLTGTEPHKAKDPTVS
Description: HSF1 potentiators in luciferase reporter cells, confirmation, cell-based, NIH3T3, luminescence, dose retest (AID 435004).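 Note: stress induced by proteasome inhibitor MG132 added 30 min after compound; luciferase reporter driven by HSF1 response element in NIH3T3 cells; actives raise luminescence as potentiators of the MG132 stress response.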 The format is functional. In general terms: A reporter such as luciferase makes a cellular process visible.

For assay [2], the target named is Cytochrome P450 2C19 (Homo sapiens, UniProt P33261). The assay is described as follows: Cytochrome panel assay with activity outcomes. Panel member name: p450-cyp2c19 Compounds with AC50 equal or less than 10 uM are considered active. The format is functional. As to conditions: read-out: AC50.
Assay [3] deals with Cytochrome P450 3A4 (Homo sapiens, UniProt P08684).
Assay [4] deals with Cytochrome P450 2D6 (Homo sapiens, UniProt P10635).
Assay [5] deals with Vero. The assay is described as follows: cells. It is filed as functional. As to conditions: Chlorocebus sabaeus.
A short description of assay [6]: P. falciparum Dd2 growth inhibitors, dose response, SYBR Green, cherry-picked samples (AID 1159567). The format is functional, cell-based.
The target of assay [7] is T2, Polyadenylate-binding protein 1 (Homo sapiens, UniProt P11940). Description: PABP1 MLLE–PAM2 interaction inhibitors, dose response, miRNA deadenylation inhibitor project, biochemical, fluorescence polarization, Cy5-PAM2 peptide, secondary (AID 602260). The format is functional. As to conditions: read-out: IC50_Mean. On the technique in general: Polarisation of emitted light reports the rotation of a fluorescent probe.

Assay [8] deals with T2, Polyadenylate-binding protein 1. Description: PABP1 MLLE–PAM2 binding inhibitor potency, dose response, biochemical, fluorescence polarization, FITC-PAM2 peptide (AID 602259). As to conditions: read-out: IC50_Mean. The format is functional.
The target in assay [9] is Large T antigen (Simian virus 40, UniProt P03070). It is filed as functional, Betapolyomavirus macacae.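 Note: Confirmatory-stage PubChem screen for compounds that inhibit SV40 T antigen.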
Assay [10] has as its target T3, Replicative DNA helicase DnaB (Mycobacterium tuberculosis, UniProt P9WMR3).
T3 sequence (P9WMR3 whole entry): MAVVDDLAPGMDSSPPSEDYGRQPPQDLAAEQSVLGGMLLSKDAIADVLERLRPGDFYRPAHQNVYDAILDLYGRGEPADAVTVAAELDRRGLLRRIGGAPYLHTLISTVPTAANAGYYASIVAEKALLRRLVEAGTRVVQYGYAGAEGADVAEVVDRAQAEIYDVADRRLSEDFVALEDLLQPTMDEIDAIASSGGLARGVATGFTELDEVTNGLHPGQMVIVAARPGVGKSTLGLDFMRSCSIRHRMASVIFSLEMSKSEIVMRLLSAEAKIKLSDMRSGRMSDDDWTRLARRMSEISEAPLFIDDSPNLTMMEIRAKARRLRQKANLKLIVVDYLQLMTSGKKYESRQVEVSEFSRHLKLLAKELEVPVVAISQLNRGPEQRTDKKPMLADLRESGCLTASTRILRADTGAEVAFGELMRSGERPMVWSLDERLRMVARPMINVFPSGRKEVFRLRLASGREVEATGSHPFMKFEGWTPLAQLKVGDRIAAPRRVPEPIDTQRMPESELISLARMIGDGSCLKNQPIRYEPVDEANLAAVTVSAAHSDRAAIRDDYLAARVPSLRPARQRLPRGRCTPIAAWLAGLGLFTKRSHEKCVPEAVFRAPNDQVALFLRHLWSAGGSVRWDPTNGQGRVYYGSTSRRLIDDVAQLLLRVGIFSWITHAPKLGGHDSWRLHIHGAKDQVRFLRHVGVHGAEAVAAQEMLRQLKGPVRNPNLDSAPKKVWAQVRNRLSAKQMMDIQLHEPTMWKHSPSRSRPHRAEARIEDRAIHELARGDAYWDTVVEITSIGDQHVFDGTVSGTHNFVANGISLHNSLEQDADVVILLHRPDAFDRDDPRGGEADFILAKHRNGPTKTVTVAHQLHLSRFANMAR
The assay is described as follows: DnaB intein splicing inhibitors, dose response, biochemical, cell-free fluorescence (AID 449749). The format is functional.

Assay [11] concerns the target T4, Protein RecA (Mycobacterium tuberculosis, UniProt P9WHJ3).
T4 sequence (P9WHJ3 whole entry): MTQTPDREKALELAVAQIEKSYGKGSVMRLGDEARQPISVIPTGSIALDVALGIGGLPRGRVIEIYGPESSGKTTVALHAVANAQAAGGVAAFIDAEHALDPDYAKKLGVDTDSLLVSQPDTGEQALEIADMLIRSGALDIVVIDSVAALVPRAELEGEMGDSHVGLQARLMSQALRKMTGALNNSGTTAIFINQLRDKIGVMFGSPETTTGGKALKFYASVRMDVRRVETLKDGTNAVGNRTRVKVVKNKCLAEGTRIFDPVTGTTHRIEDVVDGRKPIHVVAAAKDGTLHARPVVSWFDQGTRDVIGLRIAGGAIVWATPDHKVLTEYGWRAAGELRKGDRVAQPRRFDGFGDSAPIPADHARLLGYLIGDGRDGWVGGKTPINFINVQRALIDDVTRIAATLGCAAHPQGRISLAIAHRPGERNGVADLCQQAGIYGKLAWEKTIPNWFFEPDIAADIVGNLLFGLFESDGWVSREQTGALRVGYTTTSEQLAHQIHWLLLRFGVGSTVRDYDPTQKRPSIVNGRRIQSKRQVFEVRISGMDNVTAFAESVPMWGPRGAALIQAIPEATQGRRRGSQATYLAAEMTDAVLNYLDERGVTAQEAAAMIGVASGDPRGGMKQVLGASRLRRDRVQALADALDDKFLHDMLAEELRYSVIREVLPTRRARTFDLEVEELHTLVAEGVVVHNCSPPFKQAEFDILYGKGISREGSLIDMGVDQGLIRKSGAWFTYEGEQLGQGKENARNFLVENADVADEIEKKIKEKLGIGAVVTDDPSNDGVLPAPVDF
Description: Fluorescence Cell-Free Homogeneous Dose Retest to Identify Inhibitors of RecA-Intein Splicing Activity. [Related pubchem assays (depositor defined):AID2097, AID2223, AID489010, AID492950]. It is filed as functional.

For assay [12], the target named is Cytochrome P450 2C9 (Homo sapiens, UniProt P11712).
In assay [13] the target is T5, Cytochrome P450 1A2 (Homo sapiens, UniProt P05177).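 Note: PubChem cytochrome P450 panel assay, CYP1A2 panel member.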
T5 sequence (P05177 whole entry): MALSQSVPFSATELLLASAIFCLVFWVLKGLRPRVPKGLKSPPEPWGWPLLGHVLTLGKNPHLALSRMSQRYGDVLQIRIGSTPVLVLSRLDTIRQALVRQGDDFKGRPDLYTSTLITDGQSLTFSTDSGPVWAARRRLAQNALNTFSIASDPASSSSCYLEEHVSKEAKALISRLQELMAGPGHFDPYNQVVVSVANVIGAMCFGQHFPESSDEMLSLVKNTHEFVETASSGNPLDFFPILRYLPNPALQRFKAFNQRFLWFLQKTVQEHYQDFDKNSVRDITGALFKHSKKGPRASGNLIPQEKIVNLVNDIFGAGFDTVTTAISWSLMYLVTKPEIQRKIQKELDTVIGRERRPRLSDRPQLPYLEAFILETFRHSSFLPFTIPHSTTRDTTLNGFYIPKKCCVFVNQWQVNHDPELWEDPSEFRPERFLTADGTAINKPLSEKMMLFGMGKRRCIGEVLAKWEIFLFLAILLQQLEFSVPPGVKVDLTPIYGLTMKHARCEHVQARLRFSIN

Activity calls are given as the source filed them.

Sequence of Cytochrome P450 3A4 (P08684 whole entry): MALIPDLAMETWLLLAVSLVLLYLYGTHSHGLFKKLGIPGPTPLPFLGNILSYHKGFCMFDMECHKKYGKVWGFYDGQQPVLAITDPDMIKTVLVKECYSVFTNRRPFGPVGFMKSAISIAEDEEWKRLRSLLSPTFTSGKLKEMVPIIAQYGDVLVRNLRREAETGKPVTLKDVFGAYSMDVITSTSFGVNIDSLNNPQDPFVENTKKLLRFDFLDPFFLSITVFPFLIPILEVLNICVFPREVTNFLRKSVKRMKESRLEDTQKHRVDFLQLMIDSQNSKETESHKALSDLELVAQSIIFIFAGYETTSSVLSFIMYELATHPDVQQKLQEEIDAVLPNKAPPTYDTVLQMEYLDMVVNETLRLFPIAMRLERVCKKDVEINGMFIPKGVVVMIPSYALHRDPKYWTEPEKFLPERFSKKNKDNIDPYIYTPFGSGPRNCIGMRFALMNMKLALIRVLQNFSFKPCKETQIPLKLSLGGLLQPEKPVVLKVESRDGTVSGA
Sequence of Cytochrome P450 2C19 (P33261 whole entry): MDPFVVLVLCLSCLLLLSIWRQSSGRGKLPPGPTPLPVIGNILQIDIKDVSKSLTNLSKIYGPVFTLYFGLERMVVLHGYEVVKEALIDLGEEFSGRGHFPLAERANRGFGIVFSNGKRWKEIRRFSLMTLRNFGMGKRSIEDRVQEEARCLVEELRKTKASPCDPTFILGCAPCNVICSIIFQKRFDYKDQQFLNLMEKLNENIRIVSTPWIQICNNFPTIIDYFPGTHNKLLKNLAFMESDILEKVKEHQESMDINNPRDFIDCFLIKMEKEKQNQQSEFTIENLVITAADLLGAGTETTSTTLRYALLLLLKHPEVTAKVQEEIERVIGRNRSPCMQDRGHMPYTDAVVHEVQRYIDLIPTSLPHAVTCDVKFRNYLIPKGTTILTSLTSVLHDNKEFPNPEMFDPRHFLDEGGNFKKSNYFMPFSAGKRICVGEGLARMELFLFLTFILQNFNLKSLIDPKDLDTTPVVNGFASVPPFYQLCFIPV
Sequence of Cytochrome P450 2D6 (P10635 whole entry): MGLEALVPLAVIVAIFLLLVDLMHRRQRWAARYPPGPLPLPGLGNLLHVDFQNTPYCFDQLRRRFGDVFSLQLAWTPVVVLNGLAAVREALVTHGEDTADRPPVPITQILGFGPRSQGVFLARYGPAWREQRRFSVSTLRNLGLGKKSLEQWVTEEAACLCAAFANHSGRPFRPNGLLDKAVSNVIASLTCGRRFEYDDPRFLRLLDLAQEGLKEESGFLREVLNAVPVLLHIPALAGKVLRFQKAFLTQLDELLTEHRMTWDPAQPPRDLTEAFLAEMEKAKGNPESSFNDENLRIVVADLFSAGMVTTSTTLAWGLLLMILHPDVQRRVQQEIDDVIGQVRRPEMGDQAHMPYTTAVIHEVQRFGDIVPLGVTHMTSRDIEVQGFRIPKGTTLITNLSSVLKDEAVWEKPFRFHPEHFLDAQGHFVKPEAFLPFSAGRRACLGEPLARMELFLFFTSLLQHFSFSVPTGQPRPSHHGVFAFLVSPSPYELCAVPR
T2 sequence (P11940 whole entry): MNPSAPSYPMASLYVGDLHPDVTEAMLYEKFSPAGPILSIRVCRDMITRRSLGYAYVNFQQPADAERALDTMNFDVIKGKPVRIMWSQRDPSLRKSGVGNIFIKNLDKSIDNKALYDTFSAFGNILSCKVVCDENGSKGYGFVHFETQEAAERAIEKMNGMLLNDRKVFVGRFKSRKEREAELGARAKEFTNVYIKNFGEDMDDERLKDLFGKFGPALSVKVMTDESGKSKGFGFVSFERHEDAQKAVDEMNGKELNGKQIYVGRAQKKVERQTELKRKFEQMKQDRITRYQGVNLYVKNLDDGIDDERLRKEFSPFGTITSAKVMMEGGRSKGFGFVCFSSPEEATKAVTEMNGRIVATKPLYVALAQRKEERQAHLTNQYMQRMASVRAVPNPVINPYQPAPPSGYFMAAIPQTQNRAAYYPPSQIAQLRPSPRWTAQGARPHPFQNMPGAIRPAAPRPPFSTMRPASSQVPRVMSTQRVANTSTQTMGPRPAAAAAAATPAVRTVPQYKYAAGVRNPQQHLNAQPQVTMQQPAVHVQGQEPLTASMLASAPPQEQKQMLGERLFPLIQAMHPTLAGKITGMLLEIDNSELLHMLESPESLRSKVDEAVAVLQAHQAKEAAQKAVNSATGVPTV
Sequence of Cytochrome P450 2C9 (P11712 whole entry): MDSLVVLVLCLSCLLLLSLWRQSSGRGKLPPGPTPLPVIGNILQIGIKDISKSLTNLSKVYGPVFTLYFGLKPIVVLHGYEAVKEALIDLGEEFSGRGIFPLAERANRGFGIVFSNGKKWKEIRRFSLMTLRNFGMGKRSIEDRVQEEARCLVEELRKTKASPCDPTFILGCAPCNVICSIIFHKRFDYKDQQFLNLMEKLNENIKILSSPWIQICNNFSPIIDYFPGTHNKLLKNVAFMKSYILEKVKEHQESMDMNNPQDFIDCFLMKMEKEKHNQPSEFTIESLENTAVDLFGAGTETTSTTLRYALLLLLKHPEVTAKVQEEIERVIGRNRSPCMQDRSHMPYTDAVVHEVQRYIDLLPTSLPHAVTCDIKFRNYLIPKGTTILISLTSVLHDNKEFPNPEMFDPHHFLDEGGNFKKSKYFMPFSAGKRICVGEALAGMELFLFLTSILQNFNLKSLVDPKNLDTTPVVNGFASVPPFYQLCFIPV
Sequence of Large T antigen (P03070 whole entry): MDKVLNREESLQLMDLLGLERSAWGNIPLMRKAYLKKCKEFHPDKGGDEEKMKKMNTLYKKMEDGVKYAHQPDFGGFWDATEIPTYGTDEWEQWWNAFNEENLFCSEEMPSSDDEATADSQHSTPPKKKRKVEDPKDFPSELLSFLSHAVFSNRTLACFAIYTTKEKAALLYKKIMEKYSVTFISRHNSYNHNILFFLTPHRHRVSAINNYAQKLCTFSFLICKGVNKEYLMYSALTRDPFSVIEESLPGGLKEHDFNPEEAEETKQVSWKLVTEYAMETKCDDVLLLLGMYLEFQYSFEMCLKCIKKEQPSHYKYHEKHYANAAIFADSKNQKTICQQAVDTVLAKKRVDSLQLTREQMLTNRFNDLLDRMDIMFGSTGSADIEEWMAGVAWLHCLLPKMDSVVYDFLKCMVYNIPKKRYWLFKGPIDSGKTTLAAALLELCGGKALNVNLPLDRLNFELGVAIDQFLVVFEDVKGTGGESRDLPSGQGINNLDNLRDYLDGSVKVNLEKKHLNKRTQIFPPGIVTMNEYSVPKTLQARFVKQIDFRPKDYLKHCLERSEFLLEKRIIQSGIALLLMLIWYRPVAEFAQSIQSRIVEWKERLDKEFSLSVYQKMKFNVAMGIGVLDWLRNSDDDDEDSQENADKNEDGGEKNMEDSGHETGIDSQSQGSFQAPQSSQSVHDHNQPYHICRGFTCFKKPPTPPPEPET

In the case of `Fc1cc(NCc2ccccc2)nc(NCc2ccccc2)n1`, the EC50 (usually the concentration needed to bring the measured effect to its halfway point) in [1] was 91.1 µM (active).
`Cc1cc(S(=O)(=O)NCCCN2CCOCC2)ccc1F`: the AC50 in assay [2] and in [3] was 28.2 µM (inconclusive) each time.
In the case of `CCC(C)c1ccccc1NC(=O)c1cc(C)no1` (stereo unspecified), the EC50 in assay [1] was > 260 µM (inactive).
With `Cc1ccccc1NC(=O)OCc1cn(-c2ccc(Cl)cc2)nn1`, the figures for the AC50 in assay [2], in [4] and in assay [3] were 8.91 µM (inconclusive), 0.708 µM (inconclusive) and 0.794 µM (inconclusive), respectively.
As for `N=c1n(-c2ccccc2)c(O)cc(=O)n1-c1ccccc1`, the AC50 (as a rule, the concentration at which the activity in the assay is half-maximal) is 22.4 µM (inconclusive) in assay [4] and 25.1 µM (inconclusive) in assay [3].
As for `COc1ccc(OC)c(/C=C/C(=O)c2ccc3c(c2)OCCO3)c1`, the CC50 (as a rule, the concentration at which the toxic effect on the cells reaches its halfway point) in assay [5] was 18.8 µM (active).
Turning to `CC1=Nc2cc(C(=O)O)ccc2Sc2c(C)ccc(C)c21`, the EC50 in assay [1] is > 260 µM (inactive).
As for `COc1ccc(S(=O)(=O)N2CCC(C(=O)NCc3cccnc3)CC2)cc1C`, the EC50 in [1] is > 260 µM (inactive).
On to `CCCC(=O)N1CCC2(CC1)CN(Cc1ccncc1)[C@@H](CO)c1[nH]c3cc(OC)ccc3c12`, for which the AC50 in [6] is 7.29 µM (active).
Consider `O=C(C1CCCC1)N1CC[C@@H]2[C@H](CO)Nc3ccc(Br)cc3[C@@H]21`, for which the AC50 in [6] is 12.7 µM (active).
`O=C(CSc1ncn(-c2ccccc2)n1)Nc1ccc2c(c1)OCCO2`: the IC50 in assay [7] and in [8] was > 66 µM (inactive) each time.
As for `Cc1ccc(S(=O)(=O)Cc2cc(F)c([N+](=O)[O-])cc2[N+](=O)[O-])cc1`, the IC50 in assay [9] was 4.86 µM (active). In assay [10], the half-maximal activity concentration (AC50) was 16.6 µM (active). In addition, the EC50 in assay [11] is 17.2 µM (active).
Regarding `COc1ccc(-c2nnn(Cc3nc(N)nc(N4CCOCC4)n3)n2)cc1OC`, the concentration at half-maximal activity (AC50) was 35.5 µM (inconclusive) in assay [2], 12.6 µM (inconclusive) in assay [4], 28.2 µM (inconclusive) in assay [3] and 25.1 µM (inconclusive) in [12].
As for `CCCNC(=O)Nc1ccc2c(c1)OC[C@@H](C)N(CC1CCCC1)C[C@@H](C)[C@H](OC)CN(C)C2=O`, the AC50 in assay [6] was 6.1 µM (active).
`Cc1ccnc(N2CCCC(C(=O)Nc3ccc(C)c(C)c3)C2)n1` (stereo unspecified): the EC50 in assay [1] is > 260 µM (inactive).
Take `COc1ccc2c3c(n(C)c2c1)[C@@H](CO)N(C(=O)Nc1ccc(F)cc1)CC31CN(C(=O)c2ccc3c(c2)OCO3)C1`: the AC50 in assay [6] was 5.67 µM (active).
With `Cc1ccc(CN2CCN(/N=C/c3ccc(C)s3)CC2)c(C)c1`, in assay [1], the EC50 was > 260 µM (inactive).
With `NNC(=O)C1C(O)CCC2CN3CCc4c([nH]c5ccccc45)C3CC21` (stereo unspecified), the CC50 in assay [5] is > 25 µM (active).
For the compound `CC1C(=O)N(Cc2cn(Cc3ccco3)nn2)CCS(=O)(=O)N1Cc1ccc(-c2ccccc2)cc1` (stereo unspecified), the CC50 in assay [5] is > 25 µM (active).
As for `CCCN1C2=NCCCN2c2ccccc21`, the concentration at half-maximal activity (AC50) in [2] is 20 µM (inconclusive); in assay [3], 35.5 µM (inconclusive).
For the compound `COc1ccc(Nc2ccc([N+](=O)[O-])cn2)cn1`, the IC50 is > 66 µM (inactive) in assay [7] and 59.6 µM (inactive) in assay [8].
Consider `CCc1ccccc1NC1=NCC(=O)N1C1CCCCC1`, for which the EC50 in [1] was > 260 µM (inactive).
As to `CO/N=C1/c2cc(OC)ccc2O[C@@H](c2cccc(OC)c2)[C@H]1O`, the results for the AC50 in [2], in assay [4] and in assay [3] were 3.98 µM (inconclusive), 3.16 µM (inconclusive) and 6.31 µM (inconclusive), respectively.
With `CCOC(=O)/C(C#N)=C1/SC(CC)C(=O)N1c1ccc(Br)cc1` (stereo unspecified), the AC50 in assay [4] is 11.2 µM (inconclusive); in [13], 31.6 µM (inconclusive); in [3], 28.2 µM (inconclusive).
In the case of `C[C@@H]1CN([C@@H](C)CO)C(=O)c2cc(C#Cc3ccccc3)cnc2O[C@H]1CN(C)C(=O)CCN1CCCCC1`, the AC50 in assay [6] is 3.03 µM (active).
On to `COc1ccc(C(=O)NC(=S)Nc2nc(C)c(C(=O)N(C)C)s2)cc1`, for which the IC50 in [7] and in assay [8] was > 66 µM (inactive) in each case.
Take `O=C(NCc1ccc(N2CCCC2=O)cc1)Nc1ccccc1`: in assay [1], the EC50 was > 260 µM (inactive).
For `COC(=O)c1c(NC(=O)c2ccc(C)o2)sc2c1CCCCC2`, the IC50 in assay [7] and in [8] was > 66 µM (inactive) each time.
Consider `O=C(CSc1nccc(=O)[nH]1)N1CCCc2ccccc21`, for which the IC50 in [7] and in assay [8] was > 66 µM (inactive) in each case.
Take `COc1ccc(CNCCc2ccccc2)cc1OCC(N)=O`: the results for the AC50 in [2], in assay [3] and in assay [12] were 6.31 µM (inconclusive), 17.8 µM (inconclusive) and 0.0282 µM (inconclusive), respectively.
